Results published in ChEMBL document CHEMBL5390284, “Shikimate-Derived Meroterpenoids from the Ascidian-Derived Fungus Amphichorda felina SYSU-MS7908 and Their Anti-Glioma Activity” (J Nat Prod, 2023).
Each block holds one compound with its values, some of them ahead of it. Calls of active or inactive are those of the source. The calls are words filed in the database; no cut-off is given here.

Legend:
[1] = tested on: U-87 MG; test: Induction of apoptosis in human U-87 MG cells assessed as late apoptotic cells at 450 uM incubated for 48 hrs by Annexin V-FITC/PI staining based flow cytometry analysis (reference value: 11 +/- 1%); format: functional, U-87MG ATCC
[2] = tested on: U-251; test: Induction of apoptosis in human U-251 cells assessed as early apoptotic cells at 450 uM incubated for 48 hrs by Annexin V-FITC/PI staining based flow cytometry analysis (reference value: 1.5 +/- 0.4 %); format: functional
[3] = tested on: T98G; test: Induction of apoptosis in human T98G cells assessed as late apoptotic cells at 450 uM incubated for 48 hrs by Annexin V-FITC/PI staining based flow cytometry analysis (reference value: 3.7 +/- 0.3 %); format: functional
[4] = tested on: T98G; test: Induction of apoptosis in human T98G cells assessed as total apoptotic cells at 450 uM incubated for 48 hrs by Annexin V-FITC/PI staining based flow cytometry analysis (reference value: 6.4 +/- 0.8 %); format: functional
[5] = tested on: U-87 MG; test: Induction of apoptosis in human U-87 MG cells assessed as total apoptotic cells at 450 uM incubated for 48 hrs by Annexin V-FITC/PI staining based flow cytometry analysis (reference value: 16 +/- 1%); format: functional, U-87MG ATCC
[6] = tested on: U-87 MG; test: Induction of apoptosis in human U-87 MG cells assessed as early apoptotic cells at 450 uM incubated for 48 hrs by Annexin V-FITC/PI staining based flow cytometry analysis (reference value: 1.1 +/- 0.6 %); format: functional, U-87MG ATCC
[7] = tested on: T98G; test: Antiproliferative activity against human T98G cells assessed as inhibition of cell growth incubated for 48 hrs by MTT assay; format: functional, cell-based
[8] = tested on: U-251; test: Antiproliferative activity against human U-251 cells assessed as inhibition of cell growth incubated for 48 hrs by MTT assay; format: functional, cell-based; details: U-251, 48 h
[9] = tested on: U-251; test: Induction of apoptosis in human U-251 cells assessed as late apoptotic cells at 450 uM incubated for 48 hrs by Annexin V-FITC/PI staining based flow cytometry analysis (reference value: 1.3 +/- 0.6%); format: functional
[10] = tested on: T98G; test: Induction of apoptosis in human T98G cells assessed as early apoptotic cells at 450 uM incubated for 48 hrs by Annexin V-FITC/PI staining based flow cytometry analysis (reference value: 2.7 +/- 0.5 %); format: functional
[11] = tested on: U-251; test: Induction of apoptosis in human U-251 cells assessed as total apoptotic cells at 450 uM incubated for 48 hrs by Annexin V-FITC/PI staining based flow cytometry analysis (reference value: 2.8 +/- 0.3%); format: functional
[12] = tested on: U-87 MG; test: Antiproliferative activity against human U-87 MG cells assessed as inhibition of cell growth incubated for 48 hrs by MTT assay; format: functional, cell-based, U-87MG ATCC
[13] = tested on: U-87 MG; test: Induction of apoptosis in human U-87 MG cells assessed as early apoptotic cells at 5 uM incubated for 48 hrs by Annexin V-FITC/PI staining based flow cytometry analysis (reference value: 1.1 +/- 0.6 %); format: functional, U-87MG ATCC
[14] = tested on: T98G; test: Induction of apoptosis in human T98G cells assessed as early apoptotic cells at 5 uM incubated for 48 hrs by Annexin V-FITC/PI staining based flow cytometry analysis (reference value: 2.7 +/- 0.5 %); format: functional
[15] = tested on: U-251; test: Induction of apoptosis in human U-251 cells assessed as total apoptotic cells at 10 uM incubated for 48 hrs by Annexin V-FITC/PI staining based flow cytometry analysis (reference value: 2.8 +/- 0.3%); format: functional
[16] = tested on: T98G; test: Induction of apoptosis in human T98G cells assessed as late apoptotic cells at 2 uM incubated for 48 hrs by Annexin V-FITC/PI staining based flow cytometry analysis (reference value: 3.7 +/- 0.3 %); format: functional
[17] = tested on: U-251; test: Induction of apoptosis in human U-251 cells assessed as early apoptotic cells at 10 uM incubated for 48 hrs by Annexin V-FITC/PI staining based flow cytometry analysis (reference value: 1.5 +/- 0.4 %); format: functional
[18] = tested on: T98G; test: Induction of apoptosis in human T98G cells assessed as total apoptotic cells at 2 uM incubated for 48 hrs by Annexin V-FITC/PI staining based flow cytometry analysis (reference value: 6.4 +/- 0.8 %); format: functional
[19] = tested on: T98G; test: Induction of apoptosis in human T98G cells assessed as early apoptotic cells at 2 uM incubated for 48 hrs by Annexin V-FITC/PI staining based flow cytometry analysis (reference value: 2.7 +/- 0.5 %); format: functional
[20] = tested on: U-87 MG; test: Inhibition of cell migration in human U-87 MG cells incubated for 48 hrs by inverted optical microscope based wound healing assay; format: functional; details: U-87MG ATCC
[21] = tested on: T98G; test: Inhibition of cell invasion in human T98G cells at 5 to 10 uM incubated for 48 hrs by crystal violet staining based fluorescent microscope analysis; format: functional; details: dose 5-10 µM
[22] = tested on: T98G; test: Induction of apoptosis in human T98G cells assessed as late apoptotic cells at 10 uM incubated for 48 hrs by Annexin V-FITC/PI staining based flow cytometry analysis (reference value: 3.7 +/- 0.3 %); format: functional
[23] = tested on: U-251; test: Antiproliferative activity against human U-251 cells assessed as inhibition of cell growth at 100 uM incubated for 48 hrs by MTT assay; format: functional; set-up: scale not given: the % may be the effect or the level left
[24] = tested on: U-251; test: Inhibition of cell invasion in human U-251 cells at 5 to 10 uM incubated for 48 hrs by crystal violet staining based fluorescent microscope analysis; format: functional; details: dose 5-10 µM
[25] = tested on: U-87 MG; test: Induction of apoptosis in human U-87 MG cells assessed as total apoptotic cells at 5 uM incubated for 48 hrs by Annexin V-FITC/PI staining based flow cytometry analysis (reference value: 16 +/- 1%); format: functional, U-87MG ATCC
[26] = tested on: U-251; test: Inhibition of cell migration in human U-251 cells incubated for 48 hrs by inverted optical microscope based wound healing assay; format: functional
[27] = tested on: T98G; test: Induction of apoptosis in human T98G cells assessed as total apoptotic cells at 5 uM incubated for 48 hrs by Annexin V-FITC/PI staining based flow cytometry analysis (reference value: 6.4 +/- 0.8 %); format: functional
[28] = tested on: T98G; test: Inhibition of cell migration in human T98G cells incubated for 48 hrs by inverted optical microscope based wound healing assay; format: functional
[29] = tested on: T98G; test: Induction of apoptosis in human T98G cells assessed as early apoptotic cells at 10 uM incubated for 48 hrs by Annexin V-FITC/PI staining based flow cytometry analysis (reference value: 2.7 +/- 0.5 %); format: functional
[30] = tested on: U-251; test: Induction of apoptosis in human U-251 cells assessed as early apoptotic cells at 2 uM incubated for 48 hrs by Annexin V-FITC/PI staining based flow cytometry analysis (reference value: 1.5 +/- 0.4 %); format: functional
[31] = tested on: U-87 MG; test: Induction of apoptosis in human U-87 MG cells assessed as late apoptotic cells at 2 uM incubated for 48 hrs by Annexin V-FITC/PI staining based flow cytometry analysis (reference value: 11 +/- 1%); format: functional, U-87MG ATCC
[32] = tested on: U-87 MG; test: Induction of apoptosis in human U-87 MG cells assessed as total apoptotic cells at 10 uM incubated for 48 hrs by Annexin V-FITC/PI staining based flow cytometry analysis (reference value: 16 +/- 1%); format: functional, U-87MG ATCC
[33] = tested on: U-87 MG; test: Induction of apoptosis in human U-87 MG cells assessed as total apoptotic cells at 2 uM incubated for 48 hrs by Annexin V-FITC/PI staining based flow cytometry analysis (reference value: 16 +/- 1%); format: functional, U-87MG ATCC
[34] = tested on: U-251; test: Induction of apoptosis in human U-251 cells assessed as late apoptotic cells at 5 uM incubated for 48 hrs by Annexin V-FITC/PI staining based flow cytometry analysis (reference value: 1.3 +/- 0.6%); format: functional
[35] = tested on: U-251; test: Induction of apoptosis in human U-251 cells assessed as late apoptotic cells at 10 uM incubated for 48 hrs by Annexin V-FITC/PI staining based flow cytometry analysis (reference value: 1.3 +/- 0.6%); format: functional
[36] = tested on: U-251; test: Induction of apoptosis in human U-251 cells assessed as total apoptotic cells at 2 uM incubated for 48 hrs by Annexin V-FITC/PI staining based flow cytometry analysis (reference value: 2.8 +/- 0.3%); format: functional
[37] = tested on: U-87 MG; test: Antiproliferative activity against human U-87 MG cells assessed as inhibition of cell growth at 100 uM incubated for 48 hrs by MTT assay; format: functional, U-87MG ATCC; set-up: scale not given: the % may be the effect or the level left
[38] = tested on: U-87 MG; test: Induction of apoptosis in human U-87 MG cells assessed as early apoptotic cells at 10 uM incubated for 48 hrs by Annexin V-FITC/PI staining based flow cytometry analysis (reference value: 1.1 +/- 0.6 %); format: functional, U-87MG ATCC
[39] = tested on: U-251; test: Induction of apoptosis in human U-251 cells assessed as early apoptotic cells at 5 uM incubated for 48 hrs by Annexin V-FITC/PI staining based flow cytometry analysis (reference value: 1.5 +/- 0.4 %); format: functional
[40] = tested on: U-251; test: Induction of apoptosis in human U-251 cells assessed as total apoptotic cells at 5 uM incubated for 48 hrs by Annexin V-FITC/PI staining based flow cytometry analysis (reference value: 2.8 +/- 0.3%); format: functional
[41] = tested on: U-87 MG; test: Inhibition of cell invasion in human U-87 MG cells at 5 to 10 uM incubated for 48 hrs by crystal violet staining based fluorescent microscope analysis; format: functional; details: U-87MG ATCC, dose 5-10 µM
[42] = tested on: U-87 MG; test: Induction of apoptosis in human U-87 MG cells assessed as early apoptotic cells at 2 uM incubated for 48 hrs by Annexin V-FITC/PI staining based flow cytometry analysis (reference value: 1.1 +/- 0.6 %); format: functional, U-87MG ATCC
[43] = tested on: U-251; test: Induction of apoptosis in human U-251 cells assessed as late apoptotic cells at 2 uM incubated for 48 hrs by Annexin V-FITC/PI staining based flow cytometry analysis (reference value: 1.3 +/- 0.6%); format: functional
[44] = tested on: U-87 MG; test: Induction of apoptosis in human U-87 MG cells assessed as late apoptotic cells at 5 uM incubated for 48 hrs by Annexin V-FITC/PI staining based flow cytometry analysis (reference value: 11 +/- 1%); format: functional, U-87MG ATCC
[45] = tested on: T98G; test: Induction of apoptosis in human T98G cells assessed as late apoptotic cells at 5 uM incubated for 48 hrs by Annexin V-FITC/PI staining based flow cytometry analysis (reference value: 3.7 +/- 0.3 %); format: functional
[46] = tested on: T98G; test: Induction of apoptosis in human T98G cells assessed as total apoptotic cells at 10 uM incubated for 48 hrs by Annexin V-FITC/PI staining based flow cytometry analysis (reference value: 6.4 +/- 0.8 %); format: functional
[47] = tested on: U-87 MG; test: Induction of apoptosis in human U-87 MG cells assessed as late apoptotic cells at 10 uM incubated for 48 hrs by Annexin V-FITC/PI staining based flow cytometry analysis (reference value: 11 +/- 1%); format: functional, U-87MG ATCC
[48] = tested on: T98G; test: Antiproliferative activity against human T98G cells assessed as inhibition of cell growth at 100 uM incubated for 48 hrs by MTT assay; format: functional, cell-based

- IC50 [8]: 189 µM
- IC50 [12]: 203 µM
Compound: Cn1nnc2c(C(N)=O)ncn2c1=O [TEMOZOLOMIDE]
- Activity [1]: 11%
- Activity [2]: 3.7%
- Activity [3]: 9.9%
- Activity [4]: 18%
- Activity [5]: 15%
- Activity [6]: 4.2%
- IC50 [7]: 151 µM
- Activity [9]: 4.6%
- Activity [10]: 7.5%
- Activity [11]: 8.3%

- IC50 [8]: 20 µM
- IC50 [12]: 6.8 µM
Compound: C=C(C)C#C[C@]12O[C@H]1[C@@H]1OC(C)(C)[C@H](OC(C)=O)C[C@@]13O[C@H]3C2=O
- Activity [13]: 16%
- Activity [14]: 2.6%
- Activity [15]: 10%
- Activity [16]: 4.1%
- Activity [17]: 5%
- Activity [18]: 5.6%
- Activity [19]: 1.5%
- inhibition [20]: Dose-Dependent Effect
- inhibition [21]: Active
- Activity [22]: 6.5%
- Activity [23]: >50%
- inhibition [24]: Active
- IC50 [7]: 13 µM
- Activity [25]: 30%
- inhibition [26]: Dose-Dependent Effect
- Activity [27]: 7.7%
- inhibition [28]: Dose-Dependent Effect
- Activity [29]: 4.8%
- Activity [30]: 1.2%
- Activity [31]: 18%
- Activity [32]: 84%
- Activity [33]: 22%
- Activity [34]: 6%
- Activity [35]: 5.4%
- Activity [36]: 3.2%
- Activity [37]: >50%
- Activity [38]: 17%
- Activity [39]: 3.1%
- Activity [40]: 9%
- inhibition [41]: Active
- Activity [42]: 3.6%
- Activity [43]: 2%
- Activity [44]: 14%
- Activity [45]: 5.1%
- Activity [46]: 11%
- Activity [47]: 67%

Compound: CO[C@@H]1C2=C(OC(C)(C)CC2=O)[C@@H]2O[C@@]23C[C@@H](OC(C)=O)C(C)(C)O[C@@H]13
- Activity [23]: inactive
- Activity ([37]; U-87MG ATCC): inactive
- Activity [48]: inactive

Compound: C=C(C)C#C[C@]12O[C@H]1[C@@H]1OC(C)(C)[C@H](OC(C)=O)C[C@@]13O[C@H]3[C@@H]2OC(C)=O
- Activity [23]: >50%
- Activity [37]: >50%

Compound: CC(=O)O[C@@H]1C[C@]23O[C@H]2C2=C(C(=O)CC(C)(C)O2)[C@@H](O)[C@@H]3OC1(C)C
- Activity [23]: inactive
- Activity ([37]; U-87MG ATCC): inactive
- Activity [48]: inactive
